Several values for one entry are separate records, joined by “and”; a condition that tells them apart may be missing. Equal values may be shown once. Inconclusive results and toxic doses are left out.
Test system: L1210 leukemia ip in BDF1 mice, survival T/C
Assay: NCI In Vivo Anticancer Drug Screen. Data for tumor model L1210 Leukemia (intraperitoneal) in B6D2F1 (BDF1) mice
Settings: endpoint: mean survival time, higher = longer survival
Procedure, shortened: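 Transplanted-tumor mice were given test agent; controls received vehicle only. Survival readings from the two groups were divided (treated over control).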

[1] = dose: 100.0 mg/kg/injection, schedule: Q01DX009 (ip), vehicle: saline
[2] = dose: 100.0 mg/kg/injection, schedule: Q04DX003 (ip), vehicle: Klucel (hydroxypropylcellulose) (HPC)
[3] = dose: 200.0 mg/kg/injection, schedule: Q01DX009 (ip), vehicle: saline
[4] = dose: 200.0 mg/kg/injection, schedule: Q04DX003 (ip), vehicle: Klucel (hydroxypropylcellulose) (HPC)
[5] = dose: 400.0 mg/kg/injection, schedule: Q04DX003 (ip), vehicle: Klucel (hydroxypropylcellulose) (HPC)
[6] = dose: 100.0 mg/kg/injection, schedule: Q01DX009 (ip), vehicle: Klucel (hydroxypropylcellulose) (HPC)
[7] = dose: 200.0 mg/kg/injection, schedule: Q01DX009 (ip), vehicle: Klucel (hydroxypropylcellulose) (HPC)
[8] = dose: 100.0 mg/kg/injection, schedule: Q01DX001 (ip), vehicle: Klucel (hydroxypropylcellulose) (HPC)
[9] = dose: 200.0 mg/kg/injection, schedule: Q01DX001 (ip), vehicle: Klucel (hydroxypropylcellulose) (HPC)
[10] = dose: 400.0 mg/kg/injection, schedule: Q01DX001 (ip), vehicle: Klucel (hydroxypropylcellulose) (HPC)

Cc1c2oc3c(C)ccc(C(=O)OCCN4CCCC4)c3nc-2c(C(=O)OCCN2CCCC2)c(N)c1=O
T/C (dose: 100.0 mg/kg/injection, schedule: Q04DX002 (ip), vehicle: saline with Tween-80): 98 % of control
T/C (dose: 200.0 mg/kg/injection, schedule: Q04DX002 (ip), vehicle: saline with Tween-80): 106 % of control
T/C (dose: 400.0 mg/kg/injection, schedule: Q04DX002 (ip), vehicle: saline with Tween-80): 98 % of control

N#Cc1c2c(c(O)[nH]c1=O)CCCC2
T/C [1]: 97 % of control
T/C [2]: 94 % of control
T/C [3]: 97 % of control
T/C [4]: 102 % of control
T/C (dose: 400.0 mg/kg/injection, schedule: Q01DX009 (ip), vehicle: saline): 101 % of control
T/C [5]: 96 % of control

Fc1ccc(NC(=S)Nc2ccc(F)cc2)cc1
T/C (dose: 15.0 mg/kg/injection, schedule: Q01DX Z (ip), vehicle: carboxymethylcellulose (CMC)): 98 % of control
T/C (dose: 30.0 mg/kg/injection, schedule: Q01DX Z (ip), vehicle: carboxymethylcellulose (CMC)): 101 % of control
T/C (dose: 50.0 mg/kg/injection, schedule: Q01DX001 (ip), vehicle: saline): 117 % of control
T/C (dose: 60.0 mg/kg/injection, schedule: Q01DX Z (ip), vehicle: carboxymethylcellulose (CMC)): 101 % of control and 104 % of control
T/C (dose: 100.0 mg/kg/injection, schedule: Q01DX001 (ip), vehicle: saline): 113 % of control
T/C (dose: 120.0 mg/kg/injection, schedule: Q01DX Z (ip), vehicle: carboxymethylcellulose (CMC)): 101 % of control and 106 % of control
T/C (dose: 200.0 mg/kg/injection, schedule: Q01DX001 (ip), vehicle: saline): 120 % of control
T/C (dose: 240.0 mg/kg/injection, schedule: Q01DX Z (ip), vehicle: carboxymethylcellulose (CMC)): 100 % of control
T/C (dose: 240.0 mg/kg/injection, schedule: Q01DX Z (oral), vehicle: carboxymethylcellulose (CMC)): 95 % of control
T/C (dose: 480.0 mg/kg/injection, schedule: Q01DX Z (ip), vehicle: carboxymethylcellulose (CMC)): 106 % of control
T/C (dose: 480.0 mg/kg/injection, schedule: Q01DX Z (oral), vehicle: carboxymethylcellulose (CMC)): 104 % of control
T/C (dose: 960.0 mg/kg/injection, schedule: Q01DX Z (oral), vehicle: carboxymethylcellulose (CMC)): 107 % of control
T/C (dose: 1920.0 mg/kg/injection, schedule: Q01DX Z (oral), vehicle: carboxymethylcellulose (CMC)): 100 % of control

COc1ccc(C=O)c(O)c1
T/C [6]: 92 % of control
T/C [2]: 97 % of control
T/C [7]: 103 % of control
T/C [4]: 101 % of control
T/C (dose: 400.0 mg/kg/injection, schedule: Q01DX009 (ip), vehicle: Klucel (hydroxypropylcellulose) (HPC)): 95 % of control
T/C [5]: 105 % of control

N=C1C=C(N)C(=O)c2ccccc21
T/C (dose: 0.78 mg/kg/injection, schedule: Q01DX009 (ip), vehicle: Klucel (hydroxypropylcellulose) (HPC)): 103 % of control
T/C (dose: 1.56 mg/kg/injection, schedule: Q01DX009 (ip), vehicle: Klucel (hydroxypropylcellulose) (HPC)): 103 % of control
T/C (dose: 3.13 mg/kg/injection, schedule: Q01DX009 (ip), vehicle: Klucel (hydroxypropylcellulose) (HPC)): 107 % of control
T/C (dose: 100.0 mg/kg/injection, schedule: Q01DX009 (ip), vehicle: saline with Tween-80): 101 % of control

CN(C)C(=O)Sc1c(Cl)cc(S(=O)(=O)F)cc1Cl
T/C [7]: 105 % of control

CCCOC(=O)c1ccc(NCC(C)(C)N(C)C)cc1
T/C (dose: 100.0 mg/kg/injection, schedule: Q04DX003 (ip), vehicle: saline): 100 % of control
T/C (dose: 200.0 mg/kg/injection, schedule: Q04DX003 (ip), vehicle: saline): 97 % of control
T/C (dose: 400.0 mg/kg/injection, schedule: Q04DX003 (ip), vehicle: saline): 97 % of control

CN=C(N)c1ccc(N=C(N)c2ccc(-c3ccc(C(N)=Nc4ccc(C(N)=NC)cc4)cc3)cc2)cc1
T/C (dose: 2.25 mg/kg/injection, schedule: Q01DX Z (ip), vehicle: carboxymethylcellulose (CMC)): 109 % of control
T/C (dose: 4.5 mg/kg/injection, schedule: Q01DX Z (ip), vehicle: carboxymethylcellulose (CMC)): 115 % of control
T/C (dose: 18.0 mg/kg/injection, schedule: Q01DX Z (ip), vehicle: carboxymethylcellulose (CMC)): 184 % of control
T/C (dose: 50.0 mg/kg/injection, schedule: Q01DX Z (oral), vehicle: water): 101 % of control
T/C (dose: 100.0 mg/kg/injection, schedule: Q01DX Z (oral), vehicle: water): 112 % of control
T/C (dose: 200.0 mg/kg/injection, schedule: Q01DX Z (oral), vehicle: water): 107 % of control

Cc1ccc2c(c1)C(c1ccccc1)=C(NC1CCCCC1)C2=O
T/C [8]: 87 % of control
T/C [9]: 91 % of control
T/C [10]: 92 % of control

COC(=O)COC1=NCC([N+](=O)[O-])CC1 (centres undefined)
T/C [2]: 100 % of control
T/C [4]: 107 % of control
T/C [5]: 102 % of control

O=C(CBr)Nc1nccs1
T/C (dose: 3.12 mg/kg/injection, schedule: Q01DX009 (ip), vehicle: saline): 98 % of control
T/C (dose: 6.25 mg/kg/injection, schedule: Q01DX009 (ip), vehicle: saline): 93 % of control
T/C (dose: 12.5 mg/kg/injection, schedule: Q01DX009 (ip), vehicle: saline): 104 % of control
T/C (dose: 12.5 mg/kg/injection, schedule: Q04DX003 (ip), vehicle: saline): 98 % of control
T/C (dose: 25.0 mg/kg/injection, schedule: Q04DX003 (ip), vehicle: saline): 94 % of control

CC(=O)Oc1ccc(N2CC=C(c3ccccc3)CC2)cc1
T/C (dose: 100.0 mg/kg/injection, schedule: Q04DX002 (ip), vehicle: Klucel (hydroxypropylcellulose) (HPC)): 89 % of control
T/C (dose: 200.0 mg/kg/injection, schedule: Q04DX002 (ip), vehicle: Klucel (hydroxypropylcellulose) (HPC)): 95 % of control

CCC1=C2C(=O)c3ccccc3C2=C(C)S(=O)(=O)O1
T/C (dose: 12.5 mg/kg/injection, schedule: Q01DX009 (ip), vehicle: saline with Tween-80): 95 % of control
T/C (dose: 25.0 mg/kg/injection, schedule: Q01DX009 (ip), vehicle: saline with Tween-80): 108 % of control
T/C (dose: 50.0 mg/kg/injection, schedule: Q01DX009 (ip), vehicle: saline with Tween-80): 94 % of control and 111 % of control
T/C (dose: 100.0 mg/kg/injection, schedule: Q04DX003 (ip), vehicle: saline with Tween-80): 96 % of control
T/C (dose: 200.0 mg/kg/injection, schedule: Q04DX003 (ip), vehicle: saline with Tween-80): 96 % of control

Cc1cc(NC(=S)Nc2ccccc2)c(NC(=S)Nc2ccccc2)cc1C
T/C (dose: 12.5 mg/kg/injection, schedule: Q01DX005 (ip), vehicle: Klucel (hydroxypropylcellulose) (HPC)): 103 % of control
T/C (dose: 25.0 mg/kg/injection, schedule: Q01DX005 (ip), vehicle: Klucel (hydroxypropylcellulose) (HPC)): 87 % of control
T/C (dose: 25.0 mg/kg/injection, schedule: Q01DX009 (ip), vehicle: Klucel (hydroxypropylcellulose) (HPC)): 96 % of control
T/C (dose: 50.0 mg/kg/injection, schedule: Q01DX005 (ip), vehicle: Klucel (hydroxypropylcellulose) (HPC)): 103 % of control
T/C (dose: 50.0 mg/kg/injection, schedule: Q01DX009 (ip), vehicle: Klucel (hydroxypropylcellulose) (HPC)): 96 % of control
T/C (dose: 100.0 mg/kg/injection, schedule: Q01DX005 (ip), vehicle: Klucel (hydroxypropylcellulose) (HPC)): 97 % of control and 101 % of control
T/C [6]: 93 % of control
T/C (dose: 150.0 mg/kg/injection, schedule: Q01DX009 (ip), vehicle: Klucel (hydroxypropylcellulose) (HPC)): 97 % of control
T/C (dose: 335.0 mg/kg/injection, schedule: Q01DX009 (ip), vehicle: Klucel (hydroxypropylcellulose) (HPC)): 90 % of control
T/C (dose: 400.0 mg/kg/injection, schedule: Q01DX005 (ip), vehicle: Klucel (hydroxypropylcellulose) (HPC)): 101 % of control

O=C(NCCCl)Nc1ccc(Cl)cc1
T/C [8]: 104 % of control
T/C [9]: 102 % of control
T/C [10]: 91 % of control

Cc1cccnc1Nc1ncccc1C
T/C (dose: 50.0 mg/kg/injection, schedule: Q01DX009 (ip), vehicle: saline): 100 % of control
T/C [1]: 96 % of control
T/C [3]: 103 % of control

C[N+](C)(C)CCC[N+]1(C)CC2CC=CCC2C1 (centres undefined)
T/C (dose: 100.0 mg/kg/injection, schedule: Q01DX Z (ip), vehicle: saline): 97 % of control
T/C (dose: 145.0 mg/kg/injection, schedule: Q01DX Z (ip), vehicle: saline): 97 % of control
T/C (dose: 220.0 mg/kg/injection, schedule: Q01DX Z (ip), vehicle: saline): 87 % of control

Source: PubChem BioAssay AID248 (DTP/NCI, 2004)
